A short description of data set [1]: Metabolic Stability in mouse liver microsome assessed as half life at […] measured upto 60 mins by HPLC-MS/MS analysis. Type of data set: ADME. The following applies: liver microsomes.
Data set [2] can be described thus: Metabolic Stability in mouse liver microsome assessed as microsomal intrinsic clearance at […] measured upto 60 mins by HPLC-MS/MS analysis. It counts as ADME. The following applies: liver microsomes, read-out: CLH. Background: Liver microsomes are a subcellular fraction often used to study metabolism.
For data set [3], the target named is T1, Nuclear receptor ROR-gamma (Homo sapiens, UniProt P51449).
T1 sequence (P51449 whole entry): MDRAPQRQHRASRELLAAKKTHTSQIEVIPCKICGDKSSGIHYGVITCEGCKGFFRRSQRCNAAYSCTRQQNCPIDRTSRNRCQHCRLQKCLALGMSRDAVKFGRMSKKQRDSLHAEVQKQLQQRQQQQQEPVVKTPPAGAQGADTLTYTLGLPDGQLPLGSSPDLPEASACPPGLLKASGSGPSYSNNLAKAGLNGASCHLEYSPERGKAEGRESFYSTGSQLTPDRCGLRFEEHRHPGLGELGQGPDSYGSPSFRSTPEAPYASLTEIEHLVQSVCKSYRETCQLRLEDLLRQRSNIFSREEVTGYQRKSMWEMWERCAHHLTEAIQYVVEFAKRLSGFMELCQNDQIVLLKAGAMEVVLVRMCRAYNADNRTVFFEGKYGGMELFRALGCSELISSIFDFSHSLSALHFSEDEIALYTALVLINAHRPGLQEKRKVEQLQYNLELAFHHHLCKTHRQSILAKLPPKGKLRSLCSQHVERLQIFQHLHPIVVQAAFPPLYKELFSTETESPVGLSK
As to the kind of experiment: Agonist activity at biotinylated APC-labeled RORgammat LBD (unknown origin) assessed as increase in recruitment of europium-labeled SRC1 coactivator peptide incubated for 1 hr by dual FRET assay.

The nature of another data set: cells. The following applies: Mus musculus, CD4+ T cell, 96 h.
Data set [4] can be described thus: Metabolic Stability in human liver microsome assessed as microsomal intrinsic clearance at […] measured upto 60 mins by HPLC-MS/MS analysis. Type of data set: ADME. The following applies: liver microsomes, read-out: CLH.
Data set [5] in a line: Metabolic Stability in human liver microsome assessed as half life at […] measured upto 60 mins by HPLC-MS/MS analysis. Type of data set: ADME. Conditions: liver microsomes.
Data set [6] addresses T1, Nuclear receptor ROR-gamma. As to the kind of experiment: Inverse agonist activity at biotinylated APC-labeled RORgammat LBD (unknown origin) assessed as inhibition of europium-labeled SRC1 coactivator peptide recruitment incubated for 1 hr by dual FRET assay.
In data set [7] the target is T2, Nuclear receptor ROR-alpha (Homo sapiens) (UniProt P35398).
T2 sequence (whole entry): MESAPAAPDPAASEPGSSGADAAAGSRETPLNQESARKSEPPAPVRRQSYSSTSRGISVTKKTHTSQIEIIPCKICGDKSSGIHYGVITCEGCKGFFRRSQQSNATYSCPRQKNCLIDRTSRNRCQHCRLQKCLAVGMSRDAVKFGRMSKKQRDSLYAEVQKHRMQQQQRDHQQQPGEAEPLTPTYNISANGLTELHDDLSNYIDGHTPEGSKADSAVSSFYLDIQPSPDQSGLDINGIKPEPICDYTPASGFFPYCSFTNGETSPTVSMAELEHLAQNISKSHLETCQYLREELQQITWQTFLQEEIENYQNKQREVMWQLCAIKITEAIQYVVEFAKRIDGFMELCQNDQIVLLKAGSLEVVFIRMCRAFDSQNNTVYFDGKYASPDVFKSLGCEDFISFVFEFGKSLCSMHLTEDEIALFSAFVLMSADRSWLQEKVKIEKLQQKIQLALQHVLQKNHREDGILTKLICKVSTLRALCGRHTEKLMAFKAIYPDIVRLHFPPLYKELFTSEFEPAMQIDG
Kind of data set: Agonist activity at human Gal4-fused RORalpha expressed in HEK293T cells assessed as luciferase activity by measuring maximal response incubated for 16 to 20 hrs by Luciferase reporter gene assay relative to control. Type of data set: cell-based. The following applies: filed as agonist, time 16-20 hrs. (In a reporter assay the amount or activity of a reporter protein is the signal.)

A further data set in a line: in vivo. The following applies: CD-1, mouse, po, 10 mg/kg.
Data set [8] has as its target T3, Nuclear receptor ROR-beta (Homo sapiens, UniProt Q92753).
T3 sequence (Q92753 whole entry): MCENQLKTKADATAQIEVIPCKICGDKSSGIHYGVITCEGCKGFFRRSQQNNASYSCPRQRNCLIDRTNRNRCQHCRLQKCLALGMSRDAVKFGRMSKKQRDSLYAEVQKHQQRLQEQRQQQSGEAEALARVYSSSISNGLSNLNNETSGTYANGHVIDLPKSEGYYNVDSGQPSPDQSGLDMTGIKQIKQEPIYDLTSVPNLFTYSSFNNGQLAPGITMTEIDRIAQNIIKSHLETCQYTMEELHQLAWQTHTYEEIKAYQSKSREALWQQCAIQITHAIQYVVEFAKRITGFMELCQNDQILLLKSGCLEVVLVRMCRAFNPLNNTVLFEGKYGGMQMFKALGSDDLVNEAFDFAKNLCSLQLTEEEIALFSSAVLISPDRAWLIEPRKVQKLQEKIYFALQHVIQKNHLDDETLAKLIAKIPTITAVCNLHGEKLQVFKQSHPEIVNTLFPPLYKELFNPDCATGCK
As to the kind of experiment: Agonist activity at human Gal4-fused RORbeta expressed in HEK293T cells assessed as luciferase activity incubated for 16 to 20 hrs by Luciferase reporter gene assay. It counts as cell-based.

The next data set relates to B16-F10. Kind of data set: Antitumor activity against mouse B16-F10 cells xenografted in C57BL/6 mouse assessed as tumor growth inhibition at 50 mg/kg,ip administrated on day 7 for 8 days relative to control. It counts as functional. Conditions: B16-F10, 192 h, time 8 day, read-out: TGI.
Data set [9] deals with T4, Nuclear receptor ROR-alpha (Homo sapiens, UniProt P35398).
T4 sequence (P35398 whole entry): T2 sequence (whole entry)
Kind of data set: Agonist activity at human Gal4-fused RORalpha expressed in HEK293T cells assessed as luciferase activity incubated for 16 to 20 hrs by Luciferase reporter gene assay. Type of data set: cell-based.

The target in data set [10] is T5, Nuclear receptor ROR-beta (Homo sapiens) (UniProt Q92753).
T5 sequence (whole entry): T3 sequence (Q92753 whole entry)
As to the kind of experiment: Agonist activity at human Gal4-fused RORbeta expressed in HEK293T cells assessed as luciferase activity by measuring maximal response incubated for 16 to 20 hrs by Luciferase reporter gene assay relative to control. Conditions: filed as agonist, time 16-20 hrs. Type of data set: cell-based.

SMILES strings stand for the structures.

These results are taken from ChEMBL document CHEMBL5375953, “Discovery of Biaryl Amide Derivatives as Potent, Selective, and Orally Bioavailable RORγt Agonists for Cancer Immunotherapy” (J Med Chem, 2023).

As usually defined, the half-life is how long it takes for the measured level to halve. As a reminder, the EC50 is the concentration giving half of the maximal effect. Usually AUC(0-inf) stands for the area under the concentration-time curve extrapolated to infinity. The low end stands for low exposure, the high end for high exposure.

Description for cells: Induction of Th17 cells differentiation in mouse CD4+ T cell assessed as increase in CD4+ IL-17A production incubated for 4 days by flow cytometry analysis

For `CCS(=O)(=O)c1ccc(CC(=O)Nc2cc(Cl)c(-c3ccc(CN(C)C)c(C#N)c3)c(Cl)c2)cc1`, in data set [1], the half-life turned out to be 12.9 min. Further, in data set [2], the microsomal CLint was 108 µL/min/mg.

Take `CCS(=O)(=O)c1ccc(CC(=O)Nc2cc(Cl)c(-c3ccc(C=C4CCC4)c(C#N)c3)c(Cl)c2)cc1`: in data set [3], the EC50 was 20.7 nM.

Consider `CCS(=O)(=O)c1ccc(CC(=O)Nc2cc(Cl)c(-c3ccc(CC(C)C)c(C#N)c3)c(Cl)c2)cc1`, for which the EC50 was 13 nM in “cells” and 12.2 nM in data set [3]. In addition, the half-life in data set [1] is 37.7 min; in [5], 2.6 min. For the same compound, the results for the microsomal CLint in data set [4] and in [2] were 533 µL/min/mg and 36.7 µL/min/mg, respectively.

In the case of `CCS(=O)(=O)c1ccc(CC(=O)Nc2cc(Cl)c(-c3ccc(CC4CCCC4)c(C#N)c3)c(Cl)c2)cc1`, in data set [3], the EC50 turned out to be 14.3 nM.

For the compound `CCS(=O)(=O)c1ccc(CC(=O)Nc2cc(Cl)c(-c3ccc(CC(C)C)c(C#N)c3)c(Cl)c2)nc1`, the figures for the half-life in data set [1] and in data set [5] were 37.4 min and 9.3 min, respectively. For the same compound, the microsomal CLint in [4] is 150 µL/min/mg; in [2], 37 µL/min/mg.

Consider `CCS(=O)(=O)c1ccc(CC(=O)Nc2cc(Cl)c(-c3ccc(CC(C)C)cc3)c(Cl)c2)cc1`, for which, in data set [3], the EC50 amounted to 12.7 nM.

On to `CCC(C)Cc1ccc(-c2c(Cl)cc(NC(=O)Cc3ccc(S(=O)(=O)CC)cc3)cc2Cl)cc1C#N` (stereo unspecified), for which the half-life in data set [1] is 78.5 min; in data set [5], 16.9 min. Further, the microsomal CLint was 81.9 µL/min/mg in [4] and 17.6 µL/min/mg in [2].

On to `CCS(=O)(=O)c1ccc(CNC(=O)c2cc(Cl)c(-c3ccc(CC(C)C)c(C#N)c3)c(Cl)c2)cc1`, for which the half-life is 28 min in data set [1] and < 2.5 min in [5]. Besides, the microsomal CLint is > 554 µL/min/mg in data set [4] and 49.5 µL/min/mg in data set [2].

As to `CCS(=O)(=O)c1ccc(CC(=O)Nc2cc(Cl)c(-c3ccc(CC(C)C)c(F)c3)c(Cl)c2)cc1`, in [3], the EC50 was 15.2 nM.

`CCS(=O)(=O)c1ccc(CC(=O)Nc2cc(Cl)c(-c3ccccc3)c(Cl)c2)cc1`: the XC50 in [6] turned out to be 9.2 nM.

Take `CC(C)(C[C@H]1CN(S(=O)(=O)c2cccc(C(F)(F)F)c2)c2cc(-c3cc(F)cc(OC(F)F)c3)ccc2O1)C(=O)O` [CINTIRORGON]: the %max came to 67.3% in [7] and 100% in data set [10]. This compound came in with an AUC(0-inf) at 24 h in “in vivo” of 3240 ng·h/mL. The EC50 was determined as 5430 nM in data set [8], 9.8 nM in the data set “cells” and 2920 nM in data set [9]. The inhibition in vivo at 50 mg/kg with B16-F10 amounted to 45.3%.

Regarding `CCS(=O)(=O)c1ccc(CNC(=O)Nc2cc(Cl)c(-c3ccc(CC(C)C)c(C#N)c3)c(Cl)c2)cc1`, the half-life in [1] was 50.6 min; in data set [5] it was 3.9 min. The microsomal CLint came out at 354 µL/min/mg in data set [4] and 27.4 µL/min/mg in data set [2].
